In patent US5739145A (priority 1993, dated 1998):
Where a name gives a salt, the structure may show the parent alone.

Columns and labels:
[1] = system: rats (capsaicin-induced cough); assay: animal or person; assay type: in vivo; conditions: Rattus norvegicus, ip, 0.5 h
mouse vas deferens = assay: Opioid activity test using extracted mouse vas deferens sample (inhibition of electrically stimulated contraction); assay type: cell-based, mouse (male ddy)
Method: (§1) Male ddy mice were provided for experimentation. Vas deferens extracted from the mice were suspended in a Magnus tube filled with a 37° C.-heated Krebes-Henseleit solution ([…], 4.7 mM KCl, 2.5 mM CaCl2, 1.1 mM KH2 PO4, 25 mM NaHCO3, 11 mM glucose) and aerated with 5% carbon dioxide and 95% oxygen. A 0.1 Hz, 5.0 mS electrical stimulus was applied via an annular platinum electrode. The tissue contraction was recorded on a polygraph using an isometric transducer.
(§2) Then, the sample was adequately washed with a nutrient solution, and when the contraction reaction stabilized, the μ-antagonist naloxone, the δ-antagonist NTI or the κ-antagonist norBNI was added thereto, and after about 20 minutes the test compound was once again added cumulatively. The Ke value was calculated from the difference in potency between the two, according to the following equation. Ke=[concentration of added antagonist]/(IC50 ratio -1) IC50 ratio=IC50 value in presence of antagonist/IC50 value in absence of antagonist

μ-receptors = biological target: T1, μ-receptors (Mus musculus, UniProt P42866); assay: Antagonism by the μ-antagonist naloxone in extracted mouse vas deferens; assay type: cell-based; conditions: Ke=[antagonist]/(IC50 ratio -1)
T1 construct: from tissue; host or cells: vas deferens of male ddy mice
Method: as §1, §2

δ opioid receptor = biological target: T2, δ opioid receptor (Mus musculus, UniProt P32300); assay: Antagonism by the δ-antagonist NTI in extracted mouse vas deferens; assay type: cell-based; conditions: Ke=[antagonist]/(IC50 ratio -1)
T2 construct: from tissue; host or cells: vas deferens of male ddy mice
Method: as §1, §2

κ-receptors = biological target: T3, κ-receptors (Mus musculus, UniProt P33534); assay: Antagonism by the κ-antagonist norBNI in extracted mouse vas deferens; assay type: cell-based; conditions: Ke=[antagonist]/(IC50 ratio -1)
T3 construct: from tissue; host or cells: vas deferens of male ddy mice
Method: as §1, §2

[2] = system: guinea pigs (cough by mechanical airway stimulation); assay: Antitussive effect by guinea pig airway stimulation method; assay type: in vivo, guinea pig (male Hartley); conditions: for ED50: Cavia porcellus, sc, guinea pig airway stimulation; for Number of animals exhibiting coughing/number of animals tested: guinea pig, s.c.
Method: A group of five male Hartley guinea pigs (5 weeks old) with a body weight of 330-380 g were used. They were fixed in the supine position under light anesthesia by intraperitoneal administration of 15 mg/kg of pentobarbital sodium, and the necks were cut open to expose the airways. A small hole was opened in each exposed airway, from which stimulating hair was inserted about 3 cm into the airway at a 30° angle to stimulate the wall of the airway, and the occurrence or lack of coughing was noted. […] The test compounds were subcutaneously administered, and the stimulation was performed twice at each point 15, 30, 60 and 120 minutes after administration, pronouncing effective those cases in which no coughing occurred either time.

T3 sequence (P33534 whole entry): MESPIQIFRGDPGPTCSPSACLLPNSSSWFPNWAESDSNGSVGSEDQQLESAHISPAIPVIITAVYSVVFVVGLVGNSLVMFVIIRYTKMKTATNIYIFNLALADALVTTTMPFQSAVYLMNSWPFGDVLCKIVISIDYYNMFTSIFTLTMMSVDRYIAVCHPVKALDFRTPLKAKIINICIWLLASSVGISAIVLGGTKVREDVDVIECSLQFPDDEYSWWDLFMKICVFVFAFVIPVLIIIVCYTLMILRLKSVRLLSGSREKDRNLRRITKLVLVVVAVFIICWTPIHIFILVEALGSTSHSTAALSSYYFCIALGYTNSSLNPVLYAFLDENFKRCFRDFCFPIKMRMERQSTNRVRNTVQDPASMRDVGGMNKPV
T2 sequence (P32300 whole entry): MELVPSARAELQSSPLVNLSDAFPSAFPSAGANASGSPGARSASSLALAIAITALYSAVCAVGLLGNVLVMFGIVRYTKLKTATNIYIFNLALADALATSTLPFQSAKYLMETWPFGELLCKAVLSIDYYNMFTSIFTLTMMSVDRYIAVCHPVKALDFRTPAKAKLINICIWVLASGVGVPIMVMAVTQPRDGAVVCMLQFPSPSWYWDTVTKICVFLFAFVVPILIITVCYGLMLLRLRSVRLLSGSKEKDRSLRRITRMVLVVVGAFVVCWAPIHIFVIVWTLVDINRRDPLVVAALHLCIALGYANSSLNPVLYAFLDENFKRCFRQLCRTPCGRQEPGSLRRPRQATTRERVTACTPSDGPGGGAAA
T1 sequence (P42866 whole entry): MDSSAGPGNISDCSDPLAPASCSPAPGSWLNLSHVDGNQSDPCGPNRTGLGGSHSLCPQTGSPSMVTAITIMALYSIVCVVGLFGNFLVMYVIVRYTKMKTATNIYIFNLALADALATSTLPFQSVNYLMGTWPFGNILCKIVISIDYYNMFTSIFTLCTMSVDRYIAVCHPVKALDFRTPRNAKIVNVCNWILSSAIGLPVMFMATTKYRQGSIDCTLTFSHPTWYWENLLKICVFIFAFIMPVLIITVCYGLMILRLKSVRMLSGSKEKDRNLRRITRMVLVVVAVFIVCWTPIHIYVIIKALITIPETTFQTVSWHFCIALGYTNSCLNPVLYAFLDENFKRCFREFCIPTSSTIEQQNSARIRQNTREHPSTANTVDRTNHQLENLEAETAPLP

Compound	ED50 [1] [µg/kg]	IC50 (mouse vas deferens) [nM]	Ke Naloxone (μ-receptors) [nM]	Ke NTI (δ opioid receptor) [nM]	Ke norBNI (κ-receptors) [nM]	ED50 [2] [µg/kg]	Number of animals exhibiting coughing/number of animals tested ([2]; dosage 1 μg/kg)	Number of animals exhibiting coughing/number of animals tested ([2]; dosage 3 μg/kg)	Number of animals exhibiting coughing/number of animals tested ([2]; dosage 30 μg/kg)
Cc1cccc(C#CC(=O)N(C)[C@@H]2CC[C@@]3(O)[C@H]4Cc5ccc(O)c6c5[C@@]3(CCN4CC3CC3)[C@H]2O6)c1 [Compound 11, 17-cyclopropylmethyl-4,5α-epoxy-3,14β-dihydroxy-6β-[N-methyl-3-(3-methylphenyl)propiolamido]morphinan.HCl]	13.5								
Cc1cccc(/C=C/C(=O)N(C)[C@@H]2CC[C@@]3(O)[C@H]4Cc5ccc(O)c6c5[C@@]3(CCN4CC3CC3)[C@H]2O6)c1 [Compound 6, 17-cyclopropylmethyl-4,5α-epoxy-3,14β-dihydroxy-6β-(N-methyl-3-methylcinnamamido)morphinan.HCl]		0.32	1780	64.5	1.95	12.5	1/5	1/5	4/5
CN(C(=O)/C=C/c1ccoc1)[C@@H]1CC[C@@]2(O)[C@H]3Cc4ccc(O)c5c4[C@@]2(CCN3CC2CC2)[C@H]1O5 [Compound 5, 17-cyclopropylmethyl-4,5α-epoxy-3,14β-dihydroxy-6β-[N-methyl-trans-3-(3-furyl)acrylamido] morphinan.HCl]	4.3	0.42			0.164	3.7	2/5	3/5	5/5
CN(CCc1ccc(Cl)c(Cl)c1)[C@@H]1CC[C@@]2(O)[C@H]3Cc4ccc(O)c5c4[C@@]2(CCN3CC2CC2)[C@H]1O5 [Compound 7, 17-cyclopropylmethyl-4,5α-epoxy-3,14β-dihydroxy-6β-[N-methyl-N-2-(3,4-dichlorophenyl)ethylamino]morphinan.1.9 HCl]	437								
CN(C(=O)/C=C/c1cccc(C(F)(F)F)c1)[C@@H]1CC[C@@]2(O)[C@H]3Cc4ccc(O)c5c4[C@@]2(CCN3CC2CC2)[C@H]1O5 [Compound 4, 17-cyclopropylmethyl-4,5α-epoxy-3,14β-dihydroxy-6β-(N-methyl-3-trifluoromethylcinnamamido)morphinan.tartrate]	107	0.468		291	3.20	2.6	1/5	3/5	5/5
CN(C(=O)OCc1ccccc1)[C@@H]1CC[C@@]2(O)[C@H]3Cc4ccc(O)c5c4[C@@]2(CCN3CC2CC2)[C@H]1O5 [Compound 8, 17-cyclopropylmethyl-4,5α-epoxy-3,14β-dihydroxy-6β-(N-methyl-benzyloxycarbamido)morphinan.HCl]	1.79	0.42		532	1.00				
O=C(CCc1ccccc1)O[C@H]1CC[C@@]2(O)[C@H]3Cc4ccc(O)c5c4[C@@]2(CCN3CC2CC2)[C@H]1O5 [Compound 9, 17-cyclopropylmethyl-4,5α-epoxy-3,14β-dihydroxy-6α-(3-phenylpropionyloxy)morphinan.tartrate]	3300								
COc1ccc2c3c1O[C@H]1[C@H](N(C)C(=O)/C=C/c4ccoc4)CC[C@@]4(O)[C@@H](C2)N(CC2CC2)CC[C@]314 [Compound 12, 17-cyclopropylmethyl-4,5α-epoxy-3-methoxy-14β-hydroxy-6β-[N-methyl-trans-3-(3-furyl)acrylamido]morphinan.HCl]	0.12								
COc1ccc2c3c1O[C@H]1[C@H](N(C)C(=O)C#Cc4cccc(C)c4)CC[C@@]4(O)[C@@H](C2)N(CC2CC2)CC[C@]314 [Compound 13, 17-cyclopropylmethyl-4,5α-epoxy-3-methoxy-14β-hydroxy-6β-[N-methyl-3-(3-methylphenyl)propiolamido]morphinan.HCl]	12.1								
CN(C(=O)/C=C/c1cccc(OC(F)(F)F)c1)[C@@H]1CC[C@@]2(O)[C@H]3Cc4ccc(O)c5c4[C@@]2(CCN3CC2CC2)[C@H]1O5 [Compound 10, 17-cyclopropylmethyl-4,5α-epoxy-3,14β-dihydroxy-6β-(N-methyl-3-trifluoromethoxycinnamamido)morphinan.tartrate]	2.1		10.8	17.6	0.17				
